In patent US5624923A, “Tricyclic diazepine vasopressin antagonists and oxytocin antagonists” (priority 1995, dated 1997):
pIC50: −log10 of the molar value.

How the values were obtained:
[1] = target: T1, Rat Kidney Medullary V2 Receptors (Rattus norvegicus, UniProt Q00788); assay: Binding Assay to Rat Kidney Medullary V2 Receptors; conditions: for pIC50: rat kidney medulla membranes, read-out: V2 IC50
T1 construct: Medullary tissues from rat kidneys are dissected out; from tissue; host or cells: rat kidney medulla membranes
T1 sequence (Q00788 whole entry): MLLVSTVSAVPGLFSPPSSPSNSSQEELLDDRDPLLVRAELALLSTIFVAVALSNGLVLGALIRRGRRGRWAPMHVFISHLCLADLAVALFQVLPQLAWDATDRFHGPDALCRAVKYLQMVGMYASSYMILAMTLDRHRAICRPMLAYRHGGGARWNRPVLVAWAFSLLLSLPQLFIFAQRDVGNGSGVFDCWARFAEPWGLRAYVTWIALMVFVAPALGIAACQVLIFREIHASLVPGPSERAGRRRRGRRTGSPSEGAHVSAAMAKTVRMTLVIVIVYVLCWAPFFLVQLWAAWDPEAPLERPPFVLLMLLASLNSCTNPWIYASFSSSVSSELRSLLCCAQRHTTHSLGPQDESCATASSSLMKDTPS
Procedure, shortened: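 IC50 derived from competition curves; bound tritium counted by liquid scintillation after filtration. Rat medullary kidney membranes (Tris-HCl pH 7.4, BSA, PMSF) were incubated 120 min to equilibrium with radioligand and test compound (added in 50% DMSO). Nonspecific binding: 1.0 μM unlabeled ligand.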

Rat Hepatic V1 Receptors = target: T2, Rat Hepatic V1 Receptors (Rattus norvegicus, UniProt P30560); assay: Binding Assay to Rat Hepatic V1 Receptors; conditions: for pIC50: rat liver membranes, read-out: V1 IC50; for inhibition at 10 µM: 2 h, rat
T2 construct: Rat liver plasma membranes expressing the vasopressin V1 receptor subtypes; from tissue; host or cells: rat liver plasma membranes
T2 sequence (P30560 whole entry): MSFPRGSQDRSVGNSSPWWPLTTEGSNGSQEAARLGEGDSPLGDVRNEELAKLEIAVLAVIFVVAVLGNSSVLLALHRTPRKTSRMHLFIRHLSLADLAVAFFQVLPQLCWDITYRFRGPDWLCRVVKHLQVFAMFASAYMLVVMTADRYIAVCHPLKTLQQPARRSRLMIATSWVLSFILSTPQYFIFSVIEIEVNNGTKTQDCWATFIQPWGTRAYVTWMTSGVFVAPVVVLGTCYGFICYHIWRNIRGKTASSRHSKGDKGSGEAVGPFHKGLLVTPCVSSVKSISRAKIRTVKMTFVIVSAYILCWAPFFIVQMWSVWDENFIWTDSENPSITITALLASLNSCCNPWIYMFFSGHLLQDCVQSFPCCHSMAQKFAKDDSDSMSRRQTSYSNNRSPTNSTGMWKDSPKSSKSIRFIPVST

Vasopressin V1 = Vasopressin V1 Antagonist Activity in Conscious Rats (vasopressin vasopressor response); assay type: in vivo, rat
Procedure, shortened: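 Conscious rats are restrained supine, and under local 2% procaine a PE 10/20 cannula is passed through the ventral caudal tail artery into the lower abdominal aorta. The caudal vein is cannulated for intravenous dosing. Blood pressure is recorded with a Statham P23Db transducer, and vasopressin injections are repeated after compound dosing. Percent antagonism is calculated against the pre-drug vasopressor response taken as 100%.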

oxytocin receptors = target: T3, oxytocin receptors (Rattus norvegicus, UniProt P70536); assay: Oxytocin Receptor Binding; conditions: for pIC50: 1.0 nM [3H]oxytocin; for inhibition at 10 µM: [3H]oxytocin
T3 construct: The uteri are dissected out, cleaned of fat and connective tissues; from tissue; host or cells: uterus of DES-treated female Sprague-Dawley rats
T3 sequence (P70536 1-388): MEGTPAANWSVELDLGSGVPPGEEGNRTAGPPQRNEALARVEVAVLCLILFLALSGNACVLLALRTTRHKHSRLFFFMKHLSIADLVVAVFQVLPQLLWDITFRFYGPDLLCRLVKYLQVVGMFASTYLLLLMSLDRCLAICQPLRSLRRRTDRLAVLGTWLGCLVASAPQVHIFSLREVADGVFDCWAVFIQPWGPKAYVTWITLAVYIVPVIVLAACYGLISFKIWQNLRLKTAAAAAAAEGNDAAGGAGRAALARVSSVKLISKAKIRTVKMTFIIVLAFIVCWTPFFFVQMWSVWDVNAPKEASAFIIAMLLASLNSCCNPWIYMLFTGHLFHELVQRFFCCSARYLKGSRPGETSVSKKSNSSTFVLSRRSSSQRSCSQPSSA
Procedure, shortened: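 IC50 is the concentration displacing 50% of 1.0 nM [3H]OT, incubated 60 min at 22 °C in pH 7.4 Tris/MgCl2 buffer plus protease inhibitors, then filtered. Receptor source: uterine membranes from rats given 0.3 mg/kg DES i.m. 18 h earlier. 1.0 uM cold OT defined non-specific binding.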

Vasopressin V2 = Vasopressin V2 Antagonist Activity in Conscious Hydrated Rats; assay type: in vivo, rat; conditions: 10 mg/kg orally, AVP 0.4 μg/kg i.p.
Procedure, shortened: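 Four-hour urine output, osmolality and electrolytes (Na+, K+, Cl−) recorded in water-loaded rats (30 mL/kg deionized water orally) given AVP i.p. at 0.4 μg/kg. Test compounds were given orally at 0.1–100 mg/kg 1 h before AVP; 2–4 rats per compound.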

[2] = target: T4, V1 Receptor Subtype in Human Platelet (Homo sapiens, UniProt P37288); assay: Binding to Vasopressin V1 receptor subtype in Human Platelet Membranes; conditions: human platelet membranes;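 note: reported value is IC50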
T4 construct: tissue Hudson Valley Blood Services, Westchester Medical Center, Valhalla, N.Y; host or cells: human platelets (frozen platelet rich plasma)
T4 sequence (P37288 whole entry): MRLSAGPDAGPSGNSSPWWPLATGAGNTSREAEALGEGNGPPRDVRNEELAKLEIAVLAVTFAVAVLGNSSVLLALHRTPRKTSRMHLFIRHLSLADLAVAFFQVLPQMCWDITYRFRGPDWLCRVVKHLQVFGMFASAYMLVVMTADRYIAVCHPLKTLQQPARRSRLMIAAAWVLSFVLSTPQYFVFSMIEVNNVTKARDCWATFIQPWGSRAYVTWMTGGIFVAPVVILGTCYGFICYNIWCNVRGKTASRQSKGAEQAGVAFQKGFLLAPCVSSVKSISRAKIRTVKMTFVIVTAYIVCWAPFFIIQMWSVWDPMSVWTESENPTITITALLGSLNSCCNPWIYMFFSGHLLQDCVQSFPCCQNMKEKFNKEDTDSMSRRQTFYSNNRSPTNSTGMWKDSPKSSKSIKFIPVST
Method: Radioligand Binding Experiments with Human Platelet Membranes (a) Platelet Membrane Preparation: Frozen platelet rich plasma (PRP), (Platelet Source: Hudson Valley Blood Services, Westchester Medical Center, Valhalla, N.Y.) are thawed to room temperature. The tubes containing the PRP are centrifuged at 16,000×g for 10 min. at 4° C. and the supernatant fluid discarded. […] The suspension is recentrifuged at 16,000× g for 10 min. This washing step is repeated one more time. The wash discarded and the lysed pellets homogenized in low ionic strength buffer of Tris.HCl, 5.0 mM, pH 7.5 containing 5.0 mM EDTA. The homogenate is centrifuged at 39,000× g for 10 min. The resulting pellet is resuspended in Tris. […] The final pellet is resuspended in 50.0 mM Tris. HCl buffer pH 7.4 containing 120 mM NaCl and 5.0 mM KCl to give 1.0-2.0 mg protein per ml of suspension. […] Platelet Membranes […] Then add 20 μl of [^3 H]Ligand (Manning or […] Vasopressin), to give final concentrations ranging from 0.01 to 10.0 nM. Initiate the binding by adding 80.0 μl of platelet suspension (approx. 100 μg protein). Mix all reagents by pipetting the mixture up and down a few times. Non specific binding is measured in the presence of 1.0 μM of unlabeled ligand (Manning or […] Vasopressin). Let the mixture stand undisturbed at room temperature for ninety (90) min. Upon this time, rapidly filter off the incubate under vacuum suction over GF/B filters, using a Brandel Harvester. Determine the radioactivity caught on the filter disks by the addition of liquid scintillant and counting in a liquid scintillator.

Structure (SMILES) | pIC50 [1] | pIC50 (Rat Hepatic V1 Receptors) | pIC50 (oxytocin receptors) | inhibition at 10 µM (oxytocin receptors) | Osmolality (Vasopressin V2) | Urine Volume (Vasopressin V2) | other results
Cc1ccccc1CC(=O)Nc1ccc(C(=O)N2Cc3cccn3-c3ccccc32)cc1 [Example 36, N-[4-(pyrrolo[1,2-a]quinoxalin-5(4H)-ylcarbonyl)phenyl]-2-methylbenzene-acetamide] | 7.27 | 7.00 | 5.61 | 67% |  |  | Max. % Inhibition (Vasopressin V1; 30 mg/kg i.v.): 71%; Time (of max. % inhibition) (Vasopressin V1; 30 mg/kg i.v.): 60 min
Cc1ccccc1C(=O)Nc1ccc(C(=O)N2CCc3cccn3-c3ccccc32)cc1 [Example 297] | 7.48 | 6.57 | 5.40 | 76% | 796 mOsm/kg | 7 ml/4 hrs | 
O=C(Nc1ccc(C(=O)N2Cc3cccn3Cc3ccccc32)cc1)c1cccc(Cl)c1Cl [Example 468, N-[4-(5H-pyrrolo[2,1-c][1,4]benzodiazepin-10(11H)-ylcarbonyl)phenyl]-2,3-dichlorobenzamide] | 7.54 | 7.57 | 6.59 | 96% |  |  | Max. % Inhibition (Vasopressin V1; 10 mg/kg i.v.): 68%; Time (of max. % inhibition) (Vasopressin V1; 10 mg/kg i.v.): 30 min
Cc1cc(C(=O)N2Cc3cccn3Cc3ccccc32)cc(C)c1NC(=O)c1ccc(Cl)cc1Cl [Example 473] |  |  |  | 20% | 1493 mOsm/kg | 2.3 ml/4 hrs | inhibition at 10 µM ([1]; rat): 56%; inhibition at 10 µM (Rat Hepatic V1 Receptors): 90%
CN(C)CCSC(C(=O)Nc1ccc(C(=O)N2Cc3cccn3Cc3ccccc32)cc1)c1ccccc1 (stereo not drawn) [Example 584, α-[[2-(Dimethylamino)ethyl]thio]-N-[4-(5H-pyrrolo[2,1-c][1,4]benzodiazepin-10(11H)-ylcarbonyl)phenyl]benzeneacetamide] | 6.32 | 5.92 |  | 26% | 1718 mOsm/kg | 2.5 ml/4 hrs | 
CN(C)C(C(=O)Nc1ccc(C(=O)N2Cc3cccn3Cc3ccccc32)cc1)c1ccccc1 (stereo not drawn) [Example 586, α-(Dimethylamino)-N-[4-(5H-pyrrolo[2,1-c][1,4]benzodiazepin-10(11H)-ylcarbonyl)phenyl]benzeneacetamide] | 6.64 | 6.35 | 5.33 | 61% | 1196 mOsm/kg | 4.3 ml/4 hrs | 
CCOC(=O)c1ccc2n1Cc1ccccc1N(C(=O)c1ccc(NC(=O)c3ccc(Cl)cc3Cl)c(C)c1)C2 [Example 592, Ethyl 10-[4-[(2,4-dichlorobenzoyl)amino]-3-methylbenzoyl]-10,11-dihydro-5H-pyrrolo[2,1-c][1,4]benzodiazepine-3-carboxylate] | 6.62 | 5.48 |  | 41% |  |  | Max. % Inhibition (Vasopressin V1; 30 mg/kg i.v.): 37%; Time (of max. % inhibition) (Vasopressin V1; 30 mg/kg i.v.): 90 min
O=C(Nc1ccc(C(=O)N2Cc3ccc(C(=O)C(Cl)(Cl)Cl)n3Cc3ccccc32)cc1)c1ccccc1C(F)(F)F [Example 597] |  |  |  | 42% | 1250 mOsm/kg | 5.3 ml/4 hrs | inhibition at 10 µM ([1]; rat): 97%; inhibition at 10 µM (Rat Hepatic V1 Receptors): 100%
CN(C)Cc1ccc2n1Cc1ccccc1N(C(=O)c1ccc(NC(=O)c3ccc(Cl)cc3Cl)cc1)C2 [Example 664] | 7.32 | 6.92 | 5.85 | 95% |  |  | 
O=C(Nc1ccc(C(=O)N2Cc3ccc(CN4CCCC4)n3Cc3ccccc32)cc1)c1ccc(Cl)cc1Cl [Example 665, N-[4-[[3-(1-pyrrolidinylmethyl)-5H-pyrrolo[2,1-c][1,4]benzodiazepin-10(11H)-yl]carbonyl]phenyl)-2,4-dichlorobenzamide] | 7.41 | 7.25 | 6.00 | 97% |  |  | 
O=C(Nc1ccc(C(=O)N2Cc3ccc(CN4CCOCC4)n3Cc3ccccc32)cc1)c1ccc(Cl)cc1Cl [Example 666, N-[4-[[3-(4-morpholinomethyl)-5H-pyrrolo[2,1-c][1,4]benzodiazepin-10(11H)-yl]carbonyl]phenyl]-2,4-dichlorobenzamide] | 7.89 | 6.80 | 5.68 | 83% |  |  | 
CCN(CC)Cc1ccc2n1Cc1ccccc1N(C(=O)c1ccc(NC(=O)c3ccc(Cl)cc3Cl)cc1)C2 [Example 667, N-[4-[[3-[(diethylamino)methyl]-5H-pyrrolo[2,1-c][1,4]benzodiazepin-10(11H)-yl]carbonyl]phenyl]-2,4-dichlorobenzamide] | 7.89 | 6.77 | 5.80 | 89% |  |  | 
CCOC(=O)c1ccc2c(c1)N(C(=O)c1ccc(NC(=O)c3ccccc3C)cc1)Cc1cccn1C2 [Example 676, Ethyl 10,11-Dihydro-10-[4-[(2-methylbenzoyl)amino]benzoyl]-5H-pyrrolo[2,1-c][1,4]benzodiazepin-8-carboxylate] |  |  |  | 32% |  |  | inhibition at 10 µM ([1]; rat): 89%; inhibition at 10 µM (Rat Hepatic V1 Receptors): 41%
Cc1ccc(C)c(C(=O)Nc2ccc(C(=O)N3Cc4cccn4Cc4ccccc43)c(Cl)c2)c1 [Example 701, N-[4-(5H-pyrrolo[2,1-c][1.4]benzodiazepin-10(11H)-ylcarbonyl)-3-chloro-phenyl]-2,5-dimethylbenzamide] |  |  |  |  |  |  | inhibition at 1 µM ([1]; 1 μM, rat): 100%; pIC50 [2]: 6.47
